Assay results as given in US20240207240A1, “Method for Improving or Treating Cognitive Dysfunction Complicating HIV-associated Cryptococcal Meningitis with Lenalidomide” (The First Affiliated Hospital Zhejiang University School of …, priority 2022, published 2024).
Values joined by “and” are separate entries in the source; they are usually repeats but may differ in a detail not shown here. Equal entries are not always repeated. Where two headings read alike, the source gives them in different places.

Assays:
[1] = tested on: patients with cognitive dysfunction caused by HIV-associated CM-IRIS; test: Center for Epidemiological Research Depression Scale (CES-D); type: in vivo, human; conditions: before vs after lenalidomide treatment
TNF-α = conditions: cited from earlier work
[2] = tested on: patients with cognitive dysfunction caused by HIV-associated CM-IRIS; type: in vivo, human; conditions: for ΔIHDS: week 24 - week 0, median
CSF cytokines = test: Detection of inflammatory cytokines in CSF (Human Cytokine/Chemokine/Growth Factor Panel A); type: in vivo
Protocol: Detection of inflammatory cytokines in CSF: CSF samples were collected from the participants and centrifuged immediately; and the supernatant was stored at −80° C. until testing. 32 CSF cytokines were analyzed using the Human Cytokine/Chemokine/Growth Factor Panel A (Merck Millipore, St. Louis, USA): α-2-macroglobulin (α-2-M), apolipoprotein A-I (apoA-I), Apo-E, complement C3, complement factor H (CFH), fibroblast growth factor 2 (FGF-2), granulocyte-colony stimulating factor (G-CSF), granulocyte-macrophage colony-stimulating factor (GM-CSF), interferon-γ (IFN-γ), growth-regulated oncogene (GRO), soluble CD40 ligand (sCD40L), platelet-derived growth factor-AA (PDGF-AA), interleukin (IL)-12p40, IL-12p70, IL-13, IL-1α, IL-1β, IL-2, IL-3, IL-4, IL-6, IL-8, IL-10, IL-17α, monocyte chemoattractant protein-1 (MCP-1), macrophage inflammatory protein-la (MIP-la), MIP-1β, tumor necrosis factor-a (TNF-α), IL-17α, amyloid-β (1-42) (αβ42), total Tau (tTau) and phosphorylated Tau 181 (pTau181), The abbreviations of CSF cytokines are provided in Table 3.

[3] = W 24, after 6 cycles lenalidomide, individual patients P1-P4 (cognitive improvement group)
[4] = W 24, after 6 cycles lenalidomide, individual patients P5-P7 (cognitive non-improvement group)

## Nc1cccc2c1CN(C1CCC(=O)NC1=O)C2=O (centres unmarked) [lenalidomide]
[1]
  CES-D score for anxiety or depression, before to after treatment: no significant difference
TNF-α
  inhibitory effect on TNF-α relative to thalidomide: 2000 times
[2]; W24, after 6 cycles lenalidomide, 7 patients, baseline 9.0 (2.5-10.5), P=0.028
  median IHDS score: 11.0 (10.0-12.0)
[2]; W24, baseline 1.5 (1.0-3.5), P=0.042
  recall of the four items in the IHDS: 4.0 (2.0-4.0)
[2]; individual Patients 1-4 (cognitive improvement group)
  IHDS-W 24: 10 scores (2×) and 11 scores and 12 scores
[2]; individual Patients 5-7 (cognitive non-improvement group)
  IHDS-W 24: 12 scores (2×) and 10 scores
[2]; CI group
  ΔIHDS: 5.25 scores
[2]; CNI group
  ΔIHDS: 1.5 scores
CSF cytokines; CI group, P<0.001
  change in CSF G-CSF level after treatment: significant decline
  change in CSF GRO level after treatment: significant decline
  change in CSF IL-6 level after treatment: significant decline
  change in CSF IL-8 level after treatment: significant decline
  change in CSF IL-10 level after treatment: significant decline
CSF cytokines; CI group, P=0.002
  change in CSF CFH level after treatment: significant decline
  change in CSF TNF-α level after treatment: significant decline
CSF cytokines; CI group, P=0.003
  change in CSF α-2-M level after treatment: significant decline
CSF cytokines; CNI group, P=0.030
  change in CSF tTau level after treatment: increased significantly
CSF cytokines; [3]
  CSF Apo. E: 5683 pg/mL and 1764 pg/mL and 2487 pg/mL and 1873 pg/mL
  CSF CFH: 4617 pg/mL and 2381 pg/mL and 2275 pg/mL and 1603 pg/mL
  CSF Complement C3: 10475 pg/mL and 4010 pg/mL and 818.22 pg/mL and 1909 pg/mL
  CSF FGF-2: 16.08 pg/mL
  CSF G-CSF: 22.02 pg/mL and 3.57 pg/mL (2×) and 5.99 pg/mL
  CSF GM-CSF: 0.98 pg/mL and 1.02 pg/mL and 1.94 pg/mL and 2.81 pg/mL
  CSF GRO: 111.65 pg/mL and 63.2 pg/mL and 32 pg/mL and 149.74 pg/mL
  CSF IFN-γ: 1.31 pg/mL and 0.7 pg/mL and 0.66 pg/mL and 1.6 pg/mL
  CSF IL-1α: 1.91 pg/mL and 1.71 pg/mL and 1.65 pg/mL and 1.37 pg/mL
  CSF IL-1β: 1.15 pg/mL and 1.09 pg/mL and 0.88 pg/mL and 1.11 pg/mL
  CSF IL-2: 0.72 pg/mL and 0.69 pg/mL and 0.64 pg/mL and 0.81 pg/mL
  CSF IL-3: 0.41 pg/mL and 0.44 pg/mL and 0.43 pg/mL and 0.34 pg/mL
  CSF IL-4: 1.49 pg/mL and 2.22 pg/mL and 0.82 pg/mL (2×)
  CSF IL-6: 12.8 pg/mL and 63.58 pg/mL and 2.85 pg/mL (2×)
  CSF IL-8: 175.42 pg/mL and 164.92 pg/mL and 64.25 pg/mL and 118.93 pg/mL
  CSF IL-10: 4.21 pg/mL and 4.14 pg/mL and 2.45 pg/mL and 4.07 pg/mL
  CSF IL-12p40: 1.78 pg/mL and 0.38 pg/mL and 0.92 pg/mL and 10.92 pg/mL
  CSF IL-12p70: 2.46 pg/mL and 0.67 pg/mL and 2.09 pg/mL and 1.34 pg/mL
  CSF IL-13: 1.19 pg/mL and 0.8 pg/mL and 0.71 pg/mL and 1.09 pg/mL
  CSF IL-17α: 0.62 pg/mL
  CSF IP-10: 12150 pg/mL and 4404 pg/mL and 3063 pg/mL and 12231 pg/mL
  CSF MCP-1: 1624 pg/mL and 2268 pg/mL and 987.31 pg/mL and 923.8 pg/mL
  CSF MIP-1α: 4.61 pg/mL and 18.47 pg/mL and 3.38 pg/mL (2×)
  CSF MIP-1β: 23.79 pg/mL and 31.7 pg/mL and 9.58 pg/mL and 5.86 pg/mL
  CSF PDGF-AA: 5.66 pg/mL and 6.92 pg/mL and 2.78 pg/mL (2×)
  CSF TNF-α: 7.46 pg/mL and 6.82 pg/mL and 2.46 pg/mL and 8.22 pg/mL
  CSF apoA-I: 6850 pg/mL and 683.32 pg/mL and 668.25 pg/mL and 788.79 pg/mL
  CSF pTau 181: 61.43 pg/mL and 38.37 pg/mL and 42.96 pg/mL and 19.12 pg/mL
  CSF sCD40L: 2.49 pg/mL (3×) and 4.91 pg/mL
  CSF tTau: 1594 pg/mL and 431.47 pg/mL and 752.55 pg/mL and 234.58 pg/mL
  CSF α-2-M: 10777 pg/mL and 4765 pg/mL and 3814 pg/mL and 2942 pg/mL
  CSF αβ42: 2364 pg/mL and 708.02 pg/mL and 1573 pg/mL and 693.92 pg/mL
CSF cytokines; [4]
  CSF Apo. E: 5462 pg/mL and 2829 pg/mL and 2633 pg/mL
  CSF CFH: 3699 pg/mL and 1253 pg/mL and 2446 pg/mL
  CSF Complement C3: 4249 pg/mL and 2914 pg/mL and 1335 pg/mL
  CSF FGF-2: 13.73 pg/mL and 48.91 pg/mL
  CSF G-CSF: 2.84 pg/mL
  CSF GM-CSF: 2.58 pg/mL and 1.29 pg/mL (2×)
  CSF GRO: 117.5 pg/mL and 44.05 pg/mL and 73.45 pg/mL
